Measured values taken from ChEMBL document CHEMBL5136994, “Conjugates of Porphyrinoid-Based Photosensitizers with Cytotoxic Drugs: Current Progress and Future Directions toward Selective Photodynamic Therapy” (J Med Chem, 2022).
pIC50: −log10 of the molar value.

How the values were obtained:
[1] = tested on: A549; experiment: Cytotoxicity against human A549 cells assessed as cell growth inhibition by WST assay; type: functional, cell-based
[2] = tested on: A549; experiment: Photodynamic cytotoxicity against human A549 cells assessed as cell growth inhibition upon light irradiation by WST assay; type: functional, cell-based
[3] = tested on: UMUC3; experiment: Photodynamic cytotoxicity against human UMUC3 cells assessed as cell growth inhibition upon 1 J/cm2 light irradiation; type: functional, cell-based; settings: UMUC3, light or radiation study
[4] = tested on: FaDu; experiment: Photodynamic cytotoxicity against human FaDu cells assessed as cell growth inhibition upon 1 J/cm2 light irradiation; type: functional, cell-based; settings: light or radiation study
[5] = tested on: HBL-100; experiment: Photodynamic cytotoxicity against human HBL-100 cells assessed as cell growth inhibition incubated for 24 hrs by MTT assay; type: functional, cell-based
[6] = tested on: NCI-H460; experiment: Photodynamic cytotoxicity against human H460M2 cells assessed as cell growth inhibition incubated for 24 hrs followed by medium replacement without compound upon 1 J/cm2 light irradiation and measured after 24 hrs by MTT assay; type: functional, cell-based
[7] = tested on: HeLa; experiment: Cytotoxicity against human HeLa cells assessed as cell growth inhibition incubated for 24 hrs by MTT assay; type: functional, cell-based
[8] = tested on: HBL-100; experiment: Photodynamic cytotoxicity against human HBL-100 cells assessed as cell growth inhibition incubated for 24 hrs followed by medium replacement without compound upon 1 J/cm2 light irradiation and measured after 24 hrs by MTT assay; type: functional, cell-based
[9] = tested on: HeLa; experiment: Photodynamic cytotoxicity against human HeLa cells assessed as cell growth inhibition incubated for 24 hrs followed by medium replacement without compound upon 1 J/cm2 light irradiation and measured after 24 hrs by MTT assay; type: functional, cell-based
[10] = tested on: NCI-H460; experiment: Cytotoxicity against human H460M2 cells assessed as cell growth inhibition incubated for 24 hrs by MTT assay; type: functional, cell-based
[11] = tested on: FaDu; experiment: Photodynamic cytotoxicity against human FaDu cells assessed as cell growth inhibition upon light irradiation; type: functional, cell-based; settings: light or radiation study
[12] = tested on: UMUC3; experiment: Photodynamic cytotoxicity against human UMUC3 cells assessed as cell growth inhibition upon light irradiation; type: functional, cell-based; settings: UMUC3, light or radiation study
[13] = tested on: A549; experiment: Photodynamic cytotoxicity against human A549 cells assessed as cell growth inhibition upon light irradiation; type: functional, cell-based; settings: A549, light or radiation study
[14] = tested on: A549; experiment: Cytotoxicity against human A549 cells assessed as cell growth inhibition; type: functional, cell-based
[15] = tested on: HeLa; experiment: Cytotoxicity against human HeLa cells assessed as cell growth inhibition incubated for […] followed by fresh medium replacement without compound and further incubated for 44 hrs under dark condition by resazurin based fluorimetry; type: functional
[16] = tested on: HeLa; experiment: Photodynamic cytotoxicity against human HeLa cells assessed as cell growth inhibition incubated for 4 hrs followed by fresh medium replacement without compound upon 6.95 J/cm2 light irradiation for 15 mins and further incubated for 44 hrs by resazurin based fluorimetry; type: functional; settings: light or radiation study
[17] = Homo sapiens, A549, light or radiation study

Structure (SMILES): C1=Cc2nc1c(-c1ccncc1)c1ccc([nH]1)c(-c1ccncc1)c1nc(c(-c3ccc(OCc4cn(CCc5nccc6c5[nH]c5ccccc56)nn4)cc3)c3ccc([nH]3)c2-c2ccncc2)C=C1
- pIC50 ([1]; Homo sapiens, A549): < 4.00
- pIC50 [2, 17]: 4.37

Structure (SMILES): C[n+]1ccc(-c2c3nc(c(-c4cc[n+](C)cc4)c4ccc([nH]4)c(-c4cc[n+](C)cc4)c4nc(c(-c5ccc(OCc6cn(CCc7c8[nH]c9ccccc9c8cc[n+]7C)nn6)cc5)c5ccc2[nH]5)C=C4)C=C3)cc1
- pIC50 ([1]; a549): < 4.00
- pIC50 ([2]; a549): 7.22

Structure (SMILES): CCc1c(C)c2cc3nc(cc4nc(c5c6[nH]c(cc1[nH]2)c(C)c6C(=O)C5)[C@@H](CCC(=O)OC)[C@@H]4C)C(C)=C3C(C)OCc1ccc(C#Cc2cccc(Nc3ncnc4cc(OCCOC)c(OCCOC)cc34)c2)cc1 (stereo partly drawn)
- pIC50 [3]: 7.68
- pIC50 [4]: 7.22

Structure (SMILES): C[n+]1ccc(-c2c3nc(c(-c4cc[n+](C)cc4)c4ccc([nH]4)c(-c4cc[n+](C)cc4)c4nc(c(-c5cc[n+](C)cc5)c5ccc2[nH]5)C=C4)C=C3)cc1
- pIC50 ([1]; Homo sapiens, A549): < 4.00
- pIC50 [2, 17]: 6.52

Structure (SMILES): CCc1c(C)c2cc3nc(cc4nc(c5c6[nH]c(cc1[nH]2)c(C)c6C(=O)C5)[C@@H](CCC(=O)O)[C@@H]4C)C(C)=C3C(C)OCc1cccc(C#Cc2cccc(Nc3ncnc4cc(OCCOC)c(OCCOC)cc34)c2)c1 (stereo partly drawn)
- pIC50 [3]: 7.27
- pIC50 [4]: 7.51

Structure (SMILES): CCCCCCOC(C)C1=C(C)c2cc3nc(c4c5[nH]c(cc6[nH]c(cc1n2)c(C)c6CC)c(C)c5C(=O)C4)[C@@H](CCC(=O)NCCCCn1cc(-c2cccc(Nc4ncnc5cc(OCCOC)c(OCCOC)cc45)c2)nn1)[C@@H]3C (stereo partly drawn)
- pIC50 [3]: 7.70
- pIC50 [4]: 7.74

Structure (SMILES): CCc1c(C)c2cc3nc(cc4nc(c5c6[nH]c(cc1[nH]2)c(C)c6C(=O)C5)[C@@H](CCC(=O)OC)[C@@H]4C)C(C)=C3C(C)OCc1cccc(C#Cc2cccc(Nc3ncnc4cc(OCCOC)c(OCCOC)cc34)c2)c1 (stereo partly drawn)
- pIC50 [3]: 7.23
- pIC50 [4]: 7.46

Structure (SMILES): C[n+]1ccc(-c2c3nc(c(-c4cc[n+](C)cc4)c4ccc([nH]4)c(-c4cc[n+](C)cc4)c4nc(c(-c5ccc(C(=O)NCCOCCOCCNC(=O)CN6CCNCCNCC6)cc5)c5ccc2[nH]5)C=C4)C=C3)cc1
- pIC50 [5]: < 4.00
- pIC50 [6]: < 4.00
- pIC50 [7]: < 4.00
- pIC50 [8]: < 4.00
- pIC50 [9]: < 4.00
- pIC50 [10]: < 4.00

Structure (SMILES): CCCCCCOC(C)C1=C(C)c2cc3nc(c4c5[nH]c(cc6[nH]c(cc1n2)c(C)c6CC)c(C)c5C(=O)C4)[C@@H](CCC(=O)O)[C@@H]3C (stereo partly drawn)
- pIC50 [11]: 7.37
- pIC50 [12]: 7.17

Structure (SMILES): CCc1c(C)c2cc3nc(cc4nc(c5c6[nH]c(cc1[nH]2)c(C)c6C(=O)C5)[C@@H](CCC(=O)OC)[C@@H]4C)C(C)=C3COCc1cccc(C#Cc2cccc(Nc3ncnc4cc(OCCOC)c(OCCOC)cc34)c2)c1
- pIC50 [3]: 7.12
- pIC50 [4]: 7.64

Structure (SMILES): C1=Cc2nc1c(-c1ccccc1)c1ccc([nH]1)c(-c1ccccc1)c1nc(c(-c3ccc(OCc4cn(CC[n+]5c6ccccc6cc6[nH]c7ccccc7c65)nn4)cc3)c3ccc([nH]3)c2-c2ccccc2)C=C1
- pIC50 [13]: 5.60
- pIC50 [14]: 4.47

Structure (SMILES): C1=Cc2nc1c(-c1ccncc1)c1ccc([nH]1)c(-c1ccncc1)c1nc(c(-c3ccncc3)c3ccc([nH]3)c2-c2ccncc2)C=C1
- pIC50 [15]: < 4.00
- pIC50 [16]: 5.24
